Data: ChEMBL document CHEMBL5390254, “Discovery and Optimization of Novel hDHODH Inhibitors for the Treatment of Inflammatory Bowel Disease” (J Med Chem, 2023)

Experiments:
[1] = 1-octanol/water partition coefficient, logP of the compound at 2 mg by UPLC analysis; format: physicochemical
[2] = Metabolic stability in rat liver microsomes assessed as half life at 3 uM incubated upto 90 mins in presence of NADPH by LC-MS/MS analysis; format: ADME, Microsome
[3] = Metabolic stability in human liver microsomes assessed as half life at 3 uM incubated upto 90 mins in presence of NADPH by LC-MS/MS analysis; format: ADME, Microsome
[4] = Metabolic stability in rat liver microsomes assessed as intrinsic clearance at 3 uM incubated upto 90 mins in presence of NADPH by LC-MS/MS analysis; format: ADME, Microsome; details: read-out: CLH
[5] = Metabolic stability in human liver microsomes assessed as intrinsic clearance at 3 uM incubated upto 90 mins in presence of NADPH by LC-MS/MS analysis; format: ADME, Microsome; details: read-out: CLH
[6] = Metabolic stability in mouse liver microsomes assessed as intrinsic clearance at 3 uM incubated upto 90 mins in presence of NADPH by LC-MS/MS analysis; format: ADME, Microsome; details: read-out: CLH
[7] = Metabolic stability in mouse liver microsomes assessed as half life at 3 uM incubated upto 90 mins in presence of NADPH by LC-MS/MS analysis; format: ADME, Microsome

logP [1]	half-life at 3 µM [2]	half-life at 3 µM [3]	CLint scaled at 3 µM [4]	CLint scaled at 3 µM [5]	CLint scaled at 3 µM [6]	half-life at 3 µM [7]	SMILES
5.1	–	–	–	–	–	–	Nc1nc(-c2cn(Cc3c(F)cccc3F)c3ncccc23)ncc1C1CC1
–	24.5 min	38.1 min	101 mL/min/kg	45.7 mL/min/kg	177 mL/min/kg	30.8 min	Nc1nc(-c2nn(Cc3ccccc3F)c3ncccc23)ncc1C1CC1
5.5	–	–	–	–	–	–	Fc1cccc(F)c1Cn1cc(-c2ncc(C3CC3)cn2)c2cccnc21
